From patent publication US12653775B2, “Canine topical formulations and methods thereof” (priority 2023, dated 2026)

Tests used:
[1] = test system: Methicillin-resistant Staphylococcus pseudintermedius (MRSP) clinical isolate biofilm; experiment: Minimum biofilm eradication concentration (MBEC) assay, Calgary Biofilm Device; assay type: cell-based
Protocol: (§1) Minimum biofilm eradication concentration (MBEC) values provide estimates on the concentration of an antimicrobial product required to kill bacterial biofilm.
(§2) The CBD plate was incubated with
(§3) All test articles were tested in triplicate.

[2] = test system: biofilms of Pseudomonas aeruginosa; experiment: In vitro biofilm eradication study; assay type: cell-based
[3] = test system: P. aeruginosa PAE 1103 (multi-drug resistant clinical isolate) biofilm; assay type: cell-based, Pseudomonas aeruginosa; conditions: MDR P. aeruginosa; TP1 undiluted, micronized silver at lowest concentration 0.05% v/v
Protocol: as §1, §2, §3

[4] = test system: biofilms of S. pseudintermedius; experiment: In vitro biofilm eradication study; assay type: cell-based

Substance | MBEC ([1]; MRSP clinical isolate biofilm, treated 24 hours at 35° C.) | biofilm eradication (in words) ([1]; MRSP, TP1 undiluted, micronized silver at lowest concentration 0.05% v/v) | biofilm eradication (in words) [2] | biofilm eradication (in words) [3] | biofilm eradication (in words) [4]
Gentamicin [reference compound] | 0.25 µg/mL |  |  |  | 
Silver ions |  | effective in eradicating the biofilms | effective in eradicating the biofilms | effective in eradicating the biofilms | effective in eradicating the biofilms
